# In article PMC11277489, “Novel Piperazine Derivatives of Vindoline as Anticancer Agents” (International Journal of Molecular Sciences, 2024):
# Experiments:
# TK-10 [1] = assay: NCI60 one-dose screen (10 μM), Renal Cancer; type: cell-based; details: Homo sapiens; 10 μM; TK-10, Renal Cancer; read-out: Growth percent rate
# OVCAR-4 = assay: NCI60 five-dose screen, Ovarian Cancer; type: cell-based; details: Homo sapiens; OVCAR-4, Ovarian Cancer; five-dose screen; read-out: GI50
# T-47D = assay: NCI60 one-dose screen (10 μM), Breast Cancer; type: cell-based; details: Homo sapiens, T47D; 10 μM; T-47D, Breast Cancer; read-out: Growth percent rate
# MALME-3M [2] = assay: NCI60 one-dose screen (10 μM), Melanoma; type: cell-based; details: Homo sapiens; 10 μM; MALME-3M, Melanoma; read-out: Growth percent rate
# PC-3 [3] = assay: NCI60 five-dose screen, Prostate Cancer; type: cell-based; details: Homo sapiens; PC-3, Prostate Cancer; five-dose screen; read-out: GI50
# MOLT-4 = assay: NCI60 five-dose screen, Leukemia; type: cell-based; details: Homo sapiens; MOLT-4, Leukemia; five-dose screen; read-out: GI50
# NCI-H460 = assay: NCI60 five-dose screen, Non-small Cell Lung Cancer; type: cell-based; details: Homo sapiens; NCI-H460, Non-small Cell Lung Cancer; five-dose screen; read-out: GI50
# OVCAR-3 = assay: NCI60 five-dose screen, Ovarian Cancer; type: cell-based; details: Homo sapiens; OVCAR-3, Ovarian Cancer; five-dose screen; read-out: GI50
# MCF7 = assay: NCI60 five-dose screen, Breast Cancer; type: cell-based; details: Homo sapiens; MCF7, Breast Cancer; five-dose screen; read-out: GI50
# NCI/ADR-RES [4] = assay: NCI60 one-dose screen (10 μM), Ovarian Cancer; type: cell-based; details: Homo sapiens, 10 μM, Ovarian Cancer, read-out: Growth percent rate
# A549/ATCC = assay: NCI60 five-dose screen, Non-small Cell Lung Cancer; type: cell-based; details: Homo sapiens; A549/ATCC, Non-small Cell Lung Cancer; five-dose screen; read-out: GI50
# HOP-92 = assay: NCI60 one-dose screen (10 μM), Non-small Cell Lung Cancer; type: cell-based; details: Homo sapiens; 10 μM; HOP-92, Non-small Cell Lung Cancer; read-out: Growth percent rate
# IGROV1 = assay: NCI60 five-dose screen, Ovarian Cancer; type: cell-based; details: Homo sapiens, IGROV-1; IGROV1, Ovarian Cancer; five-dose screen; read-out: GI50
# UO-31 [5] = assay: NCI60 five-dose screen, Renal Cancer; type: cell-based; details: Homo sapiens; UO-31, Renal Cancer; five-dose screen; read-out: GI50
# SF-295 = assay: NCI60 one-dose screen (10 μM), CNS Cancer; type: cell-based; details: Homo sapiens; 10 μM; SF-295, CNS Cancer; read-out: Growth percent rate
# SN12C = assay: NCI60 five-dose screen, Renal Cancer; type: cell-based; details: Homo sapiens, Renal Cancer, five-dose screen, read-out: GI50
# HS 578T = assay: NCI60 five-dose screen, Breast Cancer; type: cell-based; details: Homo sapiens; HS 578T, Breast Cancer; five-dose screen; read-out: GI50
# LOX IMVI = assay: NCI60 one-dose screen (10 μM), Melanoma; type: cell-based, human; details: Homo sapiens; 10 μM; LOX IMVI, Melanoma; read-out: Growth percent rate
# PC-3 [6] = assay: NCI60 one-dose screen (10 μM), Prostate Cancer; type: cell-based; details: Homo sapiens; 10 μM; PC-3, Prostate Cancer; read-out: Growth percent rate
# 786–0 = assay: NCI60 five-dose screen, Renal Cancer; type: cell-based; details: Homo sapiens; 786–0, Renal Cancer; five-dose screen; read-out: GI50
# KM12 [7] = assay: NCI60 one-dose screen (10 μM), Colon Cancer; type: cell-based, human; details: Homo sapiens; 10 μM; KM12, Colon Cancer; read-out: Growth percent rate
# SR [8] = assay: NCI60 five-dose screen, Leukemia; type: cell-based; details: Homo sapiens, Leukemia, five-dose screen, read-out: GI50
# SNB-19 = assay: NCI60 one-dose screen (10 μM), CNS Cancer; type: cell-based; details: Homo sapiens; 10 μM; SNB-19, CNS Cancer; read-out: Growth percent rate
# TK-10 [9] = assay: NCI60 five-dose screen, Renal Cancer; type: cell-based; details: Homo sapiens; TK-10, Renal Cancer; five-dose screen; read-out: GI50
# MDA-MB231ATCC = assay: NCI60 five-dose screen, Breast Cancer; type: cell-based; details: Homo sapiens, MDA-MB-231; MDA-MB231ATCC, Breast Cancer; five-dose screen; read-out: GI50
# UACC-62 = assay: NCI60 one-dose screen (10 μM), Melanoma; type: cell-based; details: Homo sapiens; 10 μM; UACC-62, Melanoma; read-out: Growth percent rate
# SW-620 = assay: NCI60 five-dose screen, Colon Cancer; type: cell-based; details: Homo sapiens; SW-620, Colon Cancer; five-dose screen; read-out: GI50
# OVCAR-5 [10] = assay: NCI60 one-dose screen (10 μM), Ovarian Cancer; type: cell-based; details: Homo sapiens; 10 μM; OVCAR-5, Ovarian Cancer; read-out: Growth percent rate
# UACC-257 = assay: NCI60 five-dose screen, Melanoma; type: cell-based; details: Homo sapiens; UACC-257, Melanoma; five-dose screen; read-out: GI50
# CCRF-CEM = assay: NCI60 five-dose screen, Leukemia; type: cell-based; details: Homo sapiens, Leukemia, five-dose screen, read-out: GI50
# BT-549 = assay: NCI60 one-dose screen (10 μM), Breast Cancer; type: cell-based; details: Homo sapiens; 10 μM; BT-549, Breast Cancer; read-out: Growth percent rate
# SNB-75 = assay: NCI60 five-dose screen, CNS Cancer; type: cell-based; details: Homo sapiens; SNB-75, CNS Cancer; five-dose screen; read-out: GI50
# NCI-H522 = assay: NCI60 five-dose screen, Non-small Cell Lung Cancer; type: cell-based; details: Homo sapiens; NCI-H522, Non-small Cell Lung Cancer; five-dose screen; read-out: GI50
# SR [11] = assay: NCI60 one-dose screen (10 μM), Leukemia; type: cell-based; details: Homo sapiens, 10 μM, Leukemia, read-out: Growth percent rate
# MALME-3M [12] = assay: NCI60 five-dose screen, Melanoma; type: cell-based; details: Homo sapiens; MALME-3M, Melanoma; five-dose screen; read-out: GI50
# HCC-2998 = assay: NCI60 five-dose screen, Colon Cancer; type: cell-based; details: Homo sapiens; HCC-2998, Colon Cancer; five-dose screen; read-out: GI50
# NCI-H322M = assay: NCI60 five-dose screen, Non-small Cell Lung Cancer; type: cell-based; details: Homo sapiens, Non-small Cell Lung Cancer, five-dose screen, read-out: GI50
# SK-OV-3 = assay: NCI60 one-dose screen (10 μM), Ovarian Cancer; type: cell-based; details: Homo sapiens; 10 μM; SK-OV-3, Ovarian Cancer; read-out: Growth percent rate
# KM12 [13] = assay: NCI60 five-dose screen, Colon Cancer; type: cell-based; details: Homo sapiens; KM12, Colon Cancer; five-dose screen; read-out: GI50
# UO-31 [14] = assay: NCI60 one-dose screen (10 μM), Renal Cancer; type: cell-based; details: Homo sapiens; 10 μM; UO-31, Renal Cancer; read-out: Growth percent rate
# ACHN = assay: NCI60 five-dose screen, Renal Cancer; type: cell-based; details: Homo sapiens, Renal Cancer, five-dose screen, read-out: GI50
# NCI/ADR-RES [15] = assay: NCI60 five-dose screen, Ovarian Cancer; type: cell-based; details: Homo sapiens, Ovarian Cancer, five-dose screen, read-out: GI50
# NCI-H226 = assay: NCI60 one-dose screen (10 μM), Non-small Cell Lung Cancer; type: cell-based; details: Homo sapiens; 10 μM; NCI-H226, Non-small Cell Lung Cancer; read-out: Growth percent rate
# MDA-MB-231/ATCC = assay: NCI60 one-dose screen (10 μM), Breast Cancer; type: cell-based, human; details: Homo sapiens; 10 μM; MDA-MB-231/ATCC, Breast Cancer; read-out: Growth percent rate
# OVCAR-5 [16] = assay: NCI60 five-dose screen, Ovarian Cancer; type: cell-based; details: Homo sapiens; OVCAR-5, Ovarian Cancer; five-dose screen; read-out: GI50
# MDA-MB-468 = assay: NCI60 one-dose screen (10 μM), Breast Cancer; type: cell-based; details: Homo sapiens; 10 μM; MDA-MB-468, Breast Cancer; read-out: Growth percent rate
structure (smiles),measurement,setting,value
CC[C@]12C=CCN3CC[C@@]4(c5ccc(OC)cc5N(C)[C@H]4[C@@](O)(C(=O)OC)[C@@H]1OC(=O)CCC(=O)N1CCN(c4ccc(C(F)(F)F)cc4)CC1)[C@@H]32 [Compound 28],activity at 10 µM,TK-10 [1],-5.03%
same,GI50,OVCAR-4,4.27 µM
same,activity at 10 µM,T-47D,38.4%
same,activity at 10 µM,MALME-3M [2],2.45%
same,GI50,PC-3 [3],2450 nM
same,GI50,MOLT-4,1170 nM
same,GI50,NCI-H460,3310 nM
same,GI50,OVCAR-3,3.72 µM
same,GI50,MCF7,2950 nM
same,activity at 10 µM,NCI/ADR-RES [4],5.44%
same,GI50,A549/ATCC,2750 nM
same,activity at 10 µM,HOP-92,-3.33%
same,GI50,IGROV1,3310 nM
same,GI50,UO-31 [5],2290 nM
same,activity at 10 µM,SF-295,1.73%
same,GI50,SN12C,4.17 µM
same,GI50,HS 578T,4.79 µM
same,activity at 10 µM,LOX IMVI,-75.8%
same,activity at 10 µM,PC-3 [6],3.75%
same,GI50,786–0,5.01 µM
same,activity at 10 µM,KM12 [7],3.83%
same,GI50,SR [8],2290 nM
same,activity at 10 µM,SNB-19,16.2%
same,GI50,TK-10 [9],4.07 µM
same,GI50,MDA-MB231ATCC,4.17 µM
same,activity at 10 µM,UACC-62,-75.8%
same,GI50,SW-620,3.98 µM
same,activity at 10 µM,OVCAR-5 [10],2.55%
same,GI50,UACC-257,3890 nM
same,GI50,CCRF-CEM,1660 nM
same,activity at 10 µM,BT-549,12.9%
same,GI50,SNB-75,2000 nM
same,GI50,NCI-H522,3240 nM
same,activity at 10 µM,SR [11],18.4%
same,GI50,MALME-3M [12],5.37 µM
same,GI50,HCC-2998,2400 nM
same,GI50,NCI-H322M,10 µM
same,activity at 10 µM,SK-OV-3,37.5%
same,GI50,KM12 [13],4.79 µM
same,activity at 10 µM,UO-31 [14],10.3%
same,GI50,ACHN,3.8 µM
same,GI50,NCI/ADR-RES [15],3310 nM
same,activity at 10 µM,NCI-H226,14.9%
same,activity at 10 µM,MDA-MB-231/ATCC,-47%
same,GI50,OVCAR-5 [16],5.25 µM
same,activity at 10 µM,MDA-MB-468,-42.8%
CC[C@]12C=CCN3CC[C@@]4(c5ccc(OC)cc5N(C)[C@H]4[C@@](O)(C(=O)OC)[C@@H]1OC(=O)CCCN1CCN(c4ccc(C(F)(F)F)cc4)CC1)[C@@H]32 [Compound 22],activity at 10 µM,TK-10 [1],-48.5%
same,GI50,OVCAR-4,3.8 µM
same,activity at 10 µM,T-47D,-11.4%
same,activity at 10 µM,MALME-3M [2],-90.3%
same,GI50,PC-3 [3],2450 nM
same,GI50,MOLT-4,1950 nM
same,GI50,NCI-H460,1860 nM
same,GI50,OVCAR-3,2.45 µM
same,GI50,MCF7,2000 nM
same,activity at 10 µM,NCI/ADR-RES [4],-10.9%
same,GI50,A549/ATCC,2950 nM
same,activity at 10 µM,HOP-92,-30.9%
same,GI50,IGROV1,2000 nM
same,GI50,UO-31 [5],1860 nM
same,activity at 10 µM,SF-295,-84.8%
same,GI50,SN12C,2.63 µM
same,GI50,HS 578T,2.82 µM
same,activity at 10 µM,LOX IMVI,-97.2%
same,activity at 10 µM,PC-3 [6],-25.4%
same,GI50,786–0,2.57 µM
same,activity at 10 µM,KM12 [7],-70%
same,GI50,SR [8],1700 nM
same,activity at 10 µM,SNB-19,-3.08%
same,GI50,TK-10 [9],2.88 µM
same,GI50,MDA-MB231ATCC,2.82 µM
same,activity at 10 µM,UACC-62,-90.9%
same,GI50,SW-620,2.95 µM
same,activity at 10 µM,OVCAR-5 [10],-31.1%
same,GI50,UACC-257,1820 nM
same,GI50,CCRF-CEM,1860 nM
same,activity at 10 µM,BT-549,-69.1%
same,GI50,SNB-75,1660 nM
same,GI50,NCI-H522,1910 nM
same,activity at 10 µM,SR [11],14.2%
same,GI50,MALME-3M [12],1.58 µM
same,GI50,HCC-2998,1820 nM
same,GI50,NCI-H322M,3.72 µM
same,activity at 10 µM,SK-OV-3,23.6%
same,GI50,KM12 [13],2.14 µM
same,activity at 10 µM,UO-31 [14],2.06%
same,GI50,ACHN,3.24 µM
same,GI50,NCI/ADR-RES [15],2290 nM
same,activity at 10 µM,NCI-H226,-50.7%
same,activity at 10 µM,MDA-MB-231/ATCC,-67.4%
same,GI50,OVCAR-5 [16],4.07 µM
same,activity at 10 µM,MDA-MB-468,-83.4%
